From paper PMC13589290, “Plasmodium falciparum HSP90 inhibitors show divergent resistance despite a shared ATP-binding site” (Cell reports, 2026) come the findings set out here.

In experiment [1] the target is T1, HSC82 (Saccharomyces cerevisiae, UniProt P15108, A41S).
T1 construct: N-terminal domain, C-terminal hexahistidine tag
Put plainly: fluorescence polarization competition with GA-FITC on purified protein. The class given is binding.

Experiment [2] has as its target T2, HSC82 (Saccharomyces cerevisiae, UniProt P15108).
T2 construct: N-terminal domain, C-terminal hexahistidine tag
Described as above. The class given is binding.

`COC1=C2C[C@@H](C)C[C@H](OC)[C@H](O)[C@@H](C)/C=C(\C)[C@H](OC(N)=O)[C@@H](OC)/C=C\C=C(/C)C(=O)NC(=CC1=O)C2=O` [Geldanamycin]: the “fluorescence polarization competition with GA-FITC on purified protein” value in experiment [1] and in experiment [2] was “GA binding was unaffected by the A41S substitution in yeast HSC82” each time.

For `CCNC(=O)c1noc(-c2cc(C(C)C)c(O)cc2O)c1-c1ccc(CN2CCOCC2)cc1` [AUY-922], the “fluorescence polarization competition with GA-FITC on purified protein” value was “A41S reduced AUY-922 binding affinity in yeast HSC82, as evidenced by a rightward shift in the competition curve” in experiment [1] and “A41S reduced AUY-922 binding affinity in yeast HSC82, as evidenced by a rightward shift in the competition curve” in experiment [2].
